Consider three molecules from patent publication US8158792B2, “Spiropiperidines for use as tryptase inhibitors” (Janssen Pharmaceutica N.V., priority 2007, dated 2012).

Counter-ions that a name gives are not always drawn.

A word on the melting point: it is the temperature of the solid-liquid transition. What is called IC50 is the concentration needed to halve the response being measured. Low readings indicate greater potency in that assay, high ones weaker potency in that assay.

One series relates to mild asthmatics. Conditions: nebulized dry powder, 16 mild asthmatics, compared with placebo, cited from earlier work.
The target of a further series is human lung tryptase. Briefly: β-Tryptase In-Vitro Enzyme Assay. It is filed as biochemical. Conditions: human lung tryptase 1 nM, substrate H-D-HHT-Ala-Arg-pNa 500 μM, pH 7.4, room temperature. The protocol:
The β-tryptase assay was conducted with human lung tryptase (Cortex Biochem #CP3033) in an aqueous buffer (10 mM Tris, 10 mM Hepes, 150 mM NaCl, 0.1% PEG 8000, pH 7.4) using the chromogenic substrate H-D-HHT-Ala-Arg-pNa. […] Percent inhibition was calculated by comparing the initial reaction velocity of samples without inhibitor to those with inhibitor. The initial reaction velocities were analyzed using Microsoft Excel.

Series [1] relates to antigen-induced allergic sheep. Nature of the series: Sheep Efficacy Model (antigen-induced allergic sheep asthma model). It is filed as in vivo. Conditions: 30 mg/kg BID oral gavage, two sheep. Here is the method: The in vivo efficacy of Compound 3 was evaluated in antigen-induced allergic sheep, which is a well-characterized asthma model (Abraham, W. M. Pulmonary Pharmacol. 1989, 2, 33-40). Compound 3 was administered via oral gavage to two sheep previously shown to be allergic responders to inhaled Ascaris suum antigen (FIG. 1). The compound was given at a dose of 30 mg/kg, BID, on day 1, and again on day 2 at 2 h prior to antigen challenge and then 4 h after antigen challenge. Airway resistance (SRL) was monitored for 8 h post antigen challenge and airway hyper-reactivity to carbachol (PC400) was measured 24 h post antigen challenge.

Series [2] relates to guinea pig model of allergic asthma. Nature of the series: Guinea Pig Efficacy Model (OVA allergic asthma). It is filed as in vivo. Here is the method:
The in vivo efficacy of Compound 3 was evaluated in a guinea pig model of allergic asthma. In this model, guinea pigs were sensitized and challenged with chicken egg ovalbumin (OVA) according to the protocol of N. Smith and F. J. Johnson (Clin. Exp. Allergy 2005, 35, 522-530), with some slight modifications. Guinea pigs were sensitized with 80 mg of OVA and 80 mg of aluminum hydroxide administered intraperitoneally on day 0, then challenged with 0.03% OVA aerosol for 10 minutes on day 14. In the experiment measuring early phase pulmonary response (EAR), guinea pigs were challenged for an additional three minutes with 0.06% OVA aerosol. EAR was measured as enhanced pause (PenH) using BUXCO whole body plethysmography for 10 minutes immediately following the OVA aerosol challenge. The animals were then euthanized and assessed for bronchoalveolar lavage (BAL) immune cell counts 24 hours after aerosol challenge on day 15. Either Compound 3 in doses of 3, 10, and/or 30 mg/kg or vehicle were administered subcutaneously, 1-2 hours before and 4-6 hours after OVA aerosol challenge.

Setting [3] is: 3, 10 and 30 mg/kg subcutaneously, 24 hours after OVA aerosol challenge.

Consider `NCc1ccc2c(c1)C1(CCN(C(=O)c3ccc(C#Cc4ccccc4)o3)CC1)CO2` (as salt: salt) [Cpd 3, 1-(5-phenylethynyl-furan-2-yl)carbonyl-5′-aminomethyl-spiro[piperidine-4,3′-(2H)-benzo[b]furan]], for which the melting point lay within 179 to 181 °C.
`NC(=O)[C@@H]1CCCN1C(=O)[C@H](CCCN=C(N)N)NC(=O)c1ccc2ccccc2c1O` [APC-366]: in the series with mild asthmatics (ρ=0.007), the “mean maximum decrease of forced expiratory volume in one second for late airway hyperresponsiveness” value was 21%. In addition, the “improvement for the late airway response” value with mild asthmatics (ρ=0.012) was 33%.
`NCc1ccc2c(c1)C1(CCN(C(=O)c3ccc(C#Cc4ccccc4)o3)CC1)CO2` [Cpd 3, 1-(5-phenylethynyl-furan-2-yl)carbonyl-5′-aminomethyl-spiro[piperidine-4,3′-(2H)-benzo[b]furan]] displayed an IC50 at human lung tryptase of 3.5 nM. In addition, the “acute early phase response (EP; 0-4 h) post antigen, specific airway resistance (SRL)” value in series [1] is on record as “did not effect a change”. For the same molecule, in series [1] (24 h post antigen challenge), the “increase in airway hyper-reactivity to carbachol (PC400) at 24 h” value is reported as “completely blocked”. In addition, in series [1] (inhaled Ascaris suum antigen challenge), the “late response (LP; 4-8 h post antigen), specific airway resistance (SRL)” value was “completely blocked”. Also, in series [2] (30 mg/kg subcutaneously, 24 hours after OVA aerosol challenge), the “reduction in BAL eosinophils” value is reported as 66%. In series [2] (30 mg/kg subcutaneously, relative to sensitized and challenged guinea pigs treated with vehicle), the “reduction in EAR as measured with whole body plethysmography (in PenH)” value is “greater than 93%”. In series [2] (setting [3]), the “eosinophilic BAL cell counts” value is listed as “dose-dependent reduction” and the “total BAL cell counts” value is recorded as “dose-dependent reduction”.
